Values joined by “and” are separate entries in the source; they are usually repeats but may differ in a detail not shown here. Equal values may be shown once.
Experiments:
BlaMab = BlaMab (Mycobacteroides abscessus, UniProt B1MCI3); experiment: Steady-state kinetics of hydrolysis by BlaMab; type: biochemical, Mycobacterium abscessus; conditions: best-fit value (95% confidence interval); MES buffer pH 6.4, room temperature
PBP-lipo = target: T1, PBP-lipo (Mycobacteroides abscessus, UniProt B1MDC3); experiment: Apparent inhibition constant (nitrocefin, Dixon plot); type: biochemical; conditions: Ki,app
T1 construct: made in house; host or cells: Escherichia coli BL21 (DE3)
Description: (§1) Steady-state kinetic studies with JDB/NA-1-157 and JDB/NA-1-208 were performed using purified LDTs and PBPs, including LDT1–5, PBP-B, PBP-lipo, and D,D-carboxypeptidase. The assays were conducted on a BioTek Synergy2 multimode reader equipped with Gen5 software. To determine the Michaelis constant (Km^NCF) for each LDT and PBP, a wide range of NCF concentrations was tested, while the enzyme concentrations were fixed. Absorbance changes at 482 nm were monitored over 10 min. Steady-state kinetic parameters (Vmax and Km) were derived by fitting the experimental data to the Henri–Michaelis–Menten equation using nonlinear least-squares regression in GraphPad Prism version 9. The reaction velocity (v) at a given substrate concentration ([S]) was calculated using equation 2: […]
(§2) The apparent inhibition constants (Ki,app) for JDB/NA-1-157 and JDB/NA-1-208 were determined under the following conditions: an NCF concentration of 5 × Km, fixed concentrations of LDT or PBP enzymes, and varying concentrations of JDB/NA-1-157 and JDB/NA-1-208. Absorbance changes at 482 nm were monitored over a 30 min period for each inhibitor concentration. The data were linearized using a Dixon plot, which involves plotting the reciprocal of the absorbance change (1/ΔA) against the concentrations of JDB/NA-1-157 or JDB/NA-1-208. Apparent Ki,app values were derived from the intersection points on the Dixon plot and were subsequently corrected for substrate concentration and enzyme affinity using equation 3:
(§3) (3) Ki,app=observed Ki,app/1+[NCF]/Km NCF.

18 clinical isolates = experiment: MIC distribution against 18 clinical isolates (and Mab ATCC 19977); type: cell-based, Mycobacterium abscessus; conditions: single agent, 18 clinical isolates (Fig. 3 also Mab ATCC 19977)
Source text: We investigated the effect of C5α-substituted carbapenems (C5α-methyl, JDB/NA-1-157 or 10a and C5α-ethyl, JDB/NA-1-208, or 10b) against Mab strain ATCC 19977, which produces BlaMab, alongside 18 clinical isolates obtained from de-identified patients. These clinical isolates were sourced from National Jewish Health, University Hospitals Cleveland Medical Center, and Cleveland MetroHealth. The strains were utilized for MIC assays and static drug concentration time-kill (SCTK) experiments. Two C5α-substituted carbapenems were designed and synthesized in the Buynak lab at SMU ([31]). The active forms of cefuroxime salts, imipenem, amoxicillin, sulbactam, and avibactam were purchased from AchemBlock, while durlobactam was provided by Innoviva Specialty Therapeutics. All β-lactams and BLIs were prepared in sterile distilled water and subsequently filter-sterilized using a 0.22 µm polyethersulfone syringe filter.
MICs were determined in duplicate following Clinical Laboratory Standards Institute ([52]) guidelines using Middlebrook 7H9 broth supplemented with 10% (vol/vol) oleic acid-albumin-dextrose-catalase (OADC) and 0.05% (vol/vol) Tween 80, with an inoculum of 5 × 10⁵ CFU/mL. […]

LDT5 = LDT5 (Mycobacteroides abscessus, UniProt B1MHQ4); experiment: Apparent inhibition constant (nitrocefin, Dixon plot); type: biochemical, Mycobacterium abscessus; conditions: read-out: Ki,app
Description: as §1, §2, §3

PBP B = PBP B (Mycobacteroides abscessus, UniProt B1MP31); experiment: Mass spectrometric analysis of acyl-enzyme adducts; type: binding; conditions: PBP B (65,863); 1:10 molar ratio, 2 h; accuracy ±5 Da
Description: Truncated sequences of BlaMab (Δ1–30 blaMab), LDT1–5, DDC, PBP B, PonA2, and PBP-lipo (Δ1–41) were synthesized by Celtek Biosciences (Franklin, TN) and cloned into the pET28(a)+ vector. Purification of LDTs and PBPs was carried out as previously described ([15], [16], [20]). Briefly, clones were transformed into Escherichia coli BL21 (DE3), and protein expression was induced with 0.25 mM isopropyl β-d-1-thiogalactopyranoside. Cell pellets were resuspended in buffer containing 50 mM Tris (pH 8.0), 400 mM sodium chloride, and 1 mM Tris(2-carboxyethyl)phosphine hydrochloride and lysed by sonication. After centrifugation, the supernatant was purified using a His Prep FF column and eluted with 500 mM imidazole.
The purified proteins were incubated at room temperature with JDB/NA-1-157 and JDB/NA-1-208 at a molar ratio of 1:10 for 2 h. A quadrupole time-of-flight mass spectrometer (Waters Synapt-G2-Si) with electrospray ionization and a Waters Acquity H-Class UPLC system were used to analyze the samples. The liquid chromatography conditions were as follows: a BEH C18 column (1.7 µm, 2.1 × 50 mm) and a mobile phase consisting of 0.1% formic acid in water and 0.1% formic acid in acetonitrile, with a gradient elution from 10% to 90% acetonitrile over 11 min at a flow rate of 0.5 mL/min. […]

LDT5, sequence (B1MHQ4 entry or part of it): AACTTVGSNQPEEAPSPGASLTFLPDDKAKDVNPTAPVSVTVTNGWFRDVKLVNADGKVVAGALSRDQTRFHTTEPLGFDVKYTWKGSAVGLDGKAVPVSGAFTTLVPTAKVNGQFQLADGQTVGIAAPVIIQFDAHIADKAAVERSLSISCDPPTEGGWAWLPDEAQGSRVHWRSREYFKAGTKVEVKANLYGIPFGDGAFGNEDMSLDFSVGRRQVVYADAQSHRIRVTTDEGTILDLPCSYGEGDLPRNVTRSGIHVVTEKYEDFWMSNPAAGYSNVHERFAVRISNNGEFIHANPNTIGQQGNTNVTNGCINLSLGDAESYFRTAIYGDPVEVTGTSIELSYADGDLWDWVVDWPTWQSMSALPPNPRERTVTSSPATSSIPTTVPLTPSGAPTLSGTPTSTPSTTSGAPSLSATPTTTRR
BlaMab, sequence (B1MCI3 entry or part of it): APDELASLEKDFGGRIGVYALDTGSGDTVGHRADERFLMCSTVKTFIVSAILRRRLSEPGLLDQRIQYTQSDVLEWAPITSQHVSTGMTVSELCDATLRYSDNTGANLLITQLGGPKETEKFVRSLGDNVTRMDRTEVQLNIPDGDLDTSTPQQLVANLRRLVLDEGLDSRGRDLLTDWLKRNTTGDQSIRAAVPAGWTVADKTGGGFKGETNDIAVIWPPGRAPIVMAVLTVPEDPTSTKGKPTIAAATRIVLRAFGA
T1 sequence (B1MDC3 entry or part of it): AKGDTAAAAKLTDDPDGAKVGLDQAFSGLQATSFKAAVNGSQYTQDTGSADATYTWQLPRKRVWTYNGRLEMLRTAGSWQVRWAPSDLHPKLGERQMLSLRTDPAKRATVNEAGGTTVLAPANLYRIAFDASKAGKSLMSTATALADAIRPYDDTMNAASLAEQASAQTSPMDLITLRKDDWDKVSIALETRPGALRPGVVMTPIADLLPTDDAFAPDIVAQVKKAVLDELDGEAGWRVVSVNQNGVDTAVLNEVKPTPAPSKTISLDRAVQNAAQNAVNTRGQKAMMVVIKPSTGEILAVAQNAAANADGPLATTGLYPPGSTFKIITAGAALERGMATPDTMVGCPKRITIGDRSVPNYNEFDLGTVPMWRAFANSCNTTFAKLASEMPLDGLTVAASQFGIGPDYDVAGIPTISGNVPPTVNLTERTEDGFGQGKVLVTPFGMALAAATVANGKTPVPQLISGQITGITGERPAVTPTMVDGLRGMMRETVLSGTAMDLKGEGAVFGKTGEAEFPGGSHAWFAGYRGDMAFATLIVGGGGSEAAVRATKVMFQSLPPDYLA
PBP B, sequence (B1MP31 entry or part of it): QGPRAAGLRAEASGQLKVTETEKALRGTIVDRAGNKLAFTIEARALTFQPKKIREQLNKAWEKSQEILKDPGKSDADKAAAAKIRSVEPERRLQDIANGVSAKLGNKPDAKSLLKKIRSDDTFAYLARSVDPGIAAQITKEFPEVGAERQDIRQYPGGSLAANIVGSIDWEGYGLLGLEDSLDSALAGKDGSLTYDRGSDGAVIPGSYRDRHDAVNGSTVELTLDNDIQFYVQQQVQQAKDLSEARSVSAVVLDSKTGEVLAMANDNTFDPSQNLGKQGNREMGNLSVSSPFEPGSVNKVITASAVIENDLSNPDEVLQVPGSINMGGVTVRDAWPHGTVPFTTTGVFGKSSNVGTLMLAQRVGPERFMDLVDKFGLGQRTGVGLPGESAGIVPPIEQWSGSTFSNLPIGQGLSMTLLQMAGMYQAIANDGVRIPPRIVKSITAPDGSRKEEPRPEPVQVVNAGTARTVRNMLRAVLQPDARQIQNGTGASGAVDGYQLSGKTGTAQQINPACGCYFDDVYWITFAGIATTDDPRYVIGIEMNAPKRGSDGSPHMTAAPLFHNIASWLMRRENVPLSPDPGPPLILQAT

C[C@@H](O)[C@H]1C(=O)N2C(C(=O)O)=C(S[C@@H]3CN[C@H](C(=O)N(C)C)C3)C[C@]12C [JDB/NA-1-157]
kcat (BlaMab): 0.03 s⁻¹
Ki (PBP-lipo): 0.258 µM
MIC range (18 clinical isolates): 0.125 to 8.0 µg/mL and 0.125 to 8 µg/mL

CC[C@]12CC(S[C@@H]3CN[C@H](C(=O)N(C)C)C3)=C(C(=O)O)N1C(=O)[C@@H]2[C@@H](C)O [JDB/NA-1-208]
Ki (LDT5): 28.9 µM
Mass of protein after incubation (mass shift) (PBP B): 66,262 (+397) Da

From PMC12326981, “Novel C5α-substituted carbapenems enhance Mycobacterium abscessus killing via selective target binding and reduced hydrolysis by BlaMab” (Antimicrobial Agents and Chemotherapy, 2025)
